Calls of active or inactive are those of the source. No cut-off for these calls is given here.

Experiment [1] has as its system RAW264.7. Briefly: Anti-inflammatory activity in mouse RAW264.7 cells assessed as inhibition of LPS-induced NO production preincubated for 1 hr followed by LPS addition and measured after 24 hrs by Griess reagent based assay. The class given is functional, cell-based. (Nitrite, measured by Griess reagent, commonly stands in for NO production.)
Experiment [2] deals with Dipeptidyl peptidase 1 (Homo sapiens, UniProt P53634). Kind of experiment: Inhibition of human recombinant Cathepsin C using Gly-Phe-AFC as substrate preincubated for 3 hrs followed by substrate addition and measured after 1 hr by fluorescence based multifunctional microplate reader analysis.
For experiment [3], the system named is RAW264.7. Kind of experiment: Anti-inflammatory activity in mouse RAW264.7 cells assessed as inhibition of LPS-induced IL-1beta production at 5 uM preincubated for 1 hr followed by LPS addition and measured after 24 hrs by ELISA relative to control. The class given is functional. Further details: scale not given: the % may be the effect or the level left.
Experiment [4] deals with RAW264.7. Briefly: Anti-inflammatory activity in mouse RAW264.7 cells assessed as inhibition of LPS-induced TNF-alpha production at 5 uM preincubated for 1 hr followed by LPS addition and measured after 24 hrs by ELISA relative to control. The class given is functional. Set-up: scale not given: the % may be the effect or the level left. (In general: An ELISA detects its analyte on a solid surface through an enzyme-linked reagent.)

Chain of Dipeptidyl peptidase 1 (P53634 25-134 limits assumed): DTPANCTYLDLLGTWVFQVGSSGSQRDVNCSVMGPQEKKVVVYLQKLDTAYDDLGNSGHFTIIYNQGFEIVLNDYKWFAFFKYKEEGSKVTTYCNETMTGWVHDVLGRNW
Chain of Dipeptidyl peptidase 1 (P53634 231-394 limits assumed): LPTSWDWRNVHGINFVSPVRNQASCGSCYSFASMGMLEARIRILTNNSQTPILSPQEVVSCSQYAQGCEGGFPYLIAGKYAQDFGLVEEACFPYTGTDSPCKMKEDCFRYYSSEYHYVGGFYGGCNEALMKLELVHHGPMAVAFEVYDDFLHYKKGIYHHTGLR
Chain of Dipeptidyl peptidase 1 (P53634 395-463 limits assumed): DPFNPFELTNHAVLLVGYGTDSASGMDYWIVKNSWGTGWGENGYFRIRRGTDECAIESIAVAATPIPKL

In general, IC50 refers to the concentration that gives 50% inhibition. With `CN1CCN(Cc2ccc(-c3cccc4c3NC(=O)/C4=C\c3ccnc4ccccc34)cc2)CC1`, the 50% inhibitory concentration (IC50) in experiment [1] amounted to 3.2 µM; in experiment [2], 0.161 µM. Further, the Activity in experiment [3] (time 25 hrs) stood at 80.4%; in experiment [4] (time 25 hrs), 70.4%.
As for `O=C1Nc2c(cccc2-c2ccc3[nH]ccc3c2)/C1=C/c1ccnc2ccccc12`, the IC50 was 6.8 µM in experiment [1] and 0.195 µM in experiment [2]. For the same compound, the Activity in experiment [3] (time 25 hrs) was 63.5%; in experiment [4] (time 25 hrs), 43.2%.
For `Cc1ccc(NC(=O)c2cccc(-c3ccc(CN4CCOCC4)cc3)c2)cc1`, the figures for the IC50 in experiment [1] and in experiment [2] were greater than 50 µM and greater than 1 µM, respectively. Moreover, the outcome in experiment [3] (time 25.0 hrs) and in experiment [4] (time 25.0 hrs) was inactive.
Take `O=C(Nc1ccc(F)cc1)c1cccc(-c2ccc(CN3CCOCC3)cc2)c1`: the IC50 in experiment [1] is greater than 50 µM; in experiment [2] it was greater than 1 µM. The result in experiment [3] (time 25.0 hrs) and in experiment [4] (time 25.0 hrs) was inactive.
Take `CN(C)Cc1ccc(-c2cccc3c2NC(=O)/C3=C\c2ccnc3ccccc23)cc1`: the 50% inhibitory concentration (IC50) in experiment [1] turned out to be 14.5 µM; in experiment [2] it was 0.66 µM. In addition, the result in experiment [3] (time 25.0 hrs) and in experiment [4] (time 25.0 hrs) was inactive.
Consider `O=C1Nc2c(cccc2-c2ccc(CN3CCNCC3)cc2)/C1=C/c1ccnc2ccccc12`, for which the IC50 was determined as 5.1 µM in experiment [1] and 0.128 µM in experiment [2]. The Activity in experiment [3] (time 25 hrs) came to 82.5%; in experiment [4] (time 25 hrs), 68.7%.
With `O=C(Nc1ccnc2ccccc12)c1cccc(-c2ccc(CN3CCOCC3)cc2)c1`, the IC50 in experiment [1] was 9.4 µM; in experiment [2], 0.24 µM. Besides, the Activity in experiment [3] (time 25 hrs) is 75.7%; in experiment [4] (time 25 hrs), 70.6%.
For `N#Cc1ccc(-c2cccc3c2NC(=O)/C3=C\c2ccnc3ccccc23)cc1`, the IC50 in experiment [1] was greater than 50 µM; in experiment [2], greater than 1 µM. Further, the outcome in experiment [3] (time 25.0 hrs) and in experiment [4] (time 25.0 hrs) was inactive.
For the compound `O=C1Nc2c(cccc2-c2ccc3[nH]ncc3c2)/C1=C/c1ccnc2ccccc12`, the IC50 in experiment [1] was 9.8 µM; in experiment [2], 0.19 µM. The Activity in experiment [3] (time 25 hrs) is listed as 62%; in experiment [4] (time 25 hrs), 41.3%.
For the compound `Cc1ccccc1NC(=O)c1cccc(-c2ccc(CN3CCOCC3)cc2)c1`, the half-inhibitory concentration (IC50) in experiment [1] is greater than 50 µM; in experiment [2], greater than 1 µM. Moreover, the outcome in experiment [3] (time 25.0 hrs) and in experiment [4] (time 25.0 hrs) was inactive.
In the case of `CC(=O)c1ccc(NC(=O)c2cccc(-c3ccc(CN4CCOCC4)cc3)c2)cc1`, the figures for the IC50 in experiment [1] and in experiment [2] were greater than 50 µM and greater than 1 µM, respectively. The result in experiment [3] (time 25.0 hrs) and in experiment [4] (time 25.0 hrs) was inactive.
Take `O=C(Nc1ccc2ccccc2c1)c1cccc(-c2ccc(CN3CCOCC3)cc2)c1`: the results for the IC50 in experiment [1] and in experiment [2] were 7.6 µM and 0.223 µM, respectively. Moreover, the Activity in experiment [3] (time 25 hrs) worked out at 68.8%; in experiment [4] (time 25 hrs), 63.2%.
For `Nc1c(C(=O)Nc2ccc3ccccc3c2)cccc1-c1ccc(CN2CCOCC2)cc1` the same measures were 6.1 µM, 0.31 µM, 64.2% and 69.7%.
With `O=C(Nc1cncc2ccccc12)c1cccc(-c2ccc(CN3CCOCC3)cc2)c1`, the IC50 in experiment [1] came out at 9.7 µM; in experiment [2], 0.25 µM. The Activity is on record as 65.6% in experiment [3] (time 25 hrs) and 62.5% in experiment [4] (time 25 hrs).
Take `CNC(=O)c1ccc(NC(=O)c2cccc(-c3ccc(CN4CCOCC4)cc3)c2)cc1`: the results for the IC50 in experiment [1] and in experiment [2] were greater than 50 µM and greater than 1 µM, respectively. Besides, the outcome in experiment [3] (time 25.0 hrs) and in experiment [4] (time 25.0 hrs) was inactive.
As to `O=C(Nc1nccc2ccccc12)c1cccc(-c2ccc(CN3CCOCC3)cc2)c1`, the IC50 in experiment [1] was 8.7 µM; in experiment [2], 0.262 µM. Moreover, the Activity in experiment [3] (time 25 hrs) turned out to be 70.6%; in experiment [4] (time 25 hrs) it was 67.7%.
As for `Cc1ccc(-c2cccc3c2NC(=O)/C3=C\c2ccnc3ccccc23)cc1`, the 50% inhibitory concentration (IC50) is 18.7 µM in experiment [1] and greater than 1 µM in experiment [2]. For the same compound, the outcome in experiment [3] (time 25.0 hrs) and in experiment [4] (time 25.0 hrs) was inactive.
With `O=C1Nc2c(cccc2-c2ccc(OC(F)(F)F)cc2)/C1=C/c1ccnc2ccccc12`, the 50% inhibitory concentration (IC50) in experiment [1] was greater than 50 µM; in experiment [2], greater than 1 µM. The outcome in experiment [3] (time 25.0 hrs) and in experiment [4] (time 25.0 hrs) was inactive.
As for `O=C(Nc1cccc(F)c1)c1cccc(-c2ccc(CN3CCOCC3)cc2)c1`, the IC50 is greater than 50 µM in experiment [1] and greater than 1 µM in experiment [2]. The outcome in experiment [3] (time 25.0 hrs) and in experiment [4] (time 25.0 hrs) was inactive.
As for `CC(C)c1ccc(-c2cccc3c2NC(=O)/C3=C\c2ccnc3ccccc23)cc1`, the IC50 was greater than 50 µM in experiment [1] and greater than 1 µM in experiment [2]. Besides, the result in experiment [3] (time 25.0 hrs) and in experiment [4] (time 25.0 hrs) was inactive.
As for `O=C(Nc1ccnc2ccccc12)c1cccc(-c2ccc(CN3CCOCC3)cc2)n1`, the IC50 was found to be 2.9 µM in experiment [1] and 0.273 µM in experiment [2]. For the same compound, the Activity was found to be 70.2% in experiment [3] (time 25 hrs) and 62.2% in experiment [4] (time 25 hrs).
As for `CCc1cccc(NC(=O)c2cccc(-c3ccc(CN4CCOCC4)cc3)c2)c1`, the figures for the concentration for half-maximal inhibition (IC50) in experiment [1] and in experiment [2] were greater than 50 µM and greater than 1 µM, respectively. Further, the result in experiment [3] (time 25.0 hrs) and in experiment [4] (time 25.0 hrs) was inactive.
Consider `COc1ccc(NC(=O)c2cccc(-c3ccc(CN4CCOCC4)cc3)c2)cc1`, for which the figures for the half-inhibitory concentration (IC50) in experiment [1] and in experiment [2] were greater than 50 µM and 0.731 µM, respectively. Moreover, the result in experiment [3] (time 25.0 hrs) and in experiment [4] (time 25.0 hrs) was inactive.
For the compound `O=C1Nc2c(cccc2-c2ccccc2)/C1=C/c1ccnc2ccccc12`, the IC50 in experiment [1] is greater than 50 µM; in experiment [2], greater than 1 µM. The outcome in experiment [3] (time 25.0 hrs) and in experiment [4] (time 25.0 hrs) was inactive.
For the compound `O=C(Nc1cccc2ccccc12)c1cccc(-c2ccc(CN3CCOCC3)cc2)n1`, the values for the IC50 in experiment [1] and in experiment [2] were 10 µM and 0.253 µM, respectively. Also, the Activity in experiment [3] (time 25 hrs) is reported as 68.5%; in experiment [4] (time 25 hrs), 59.6%.
Turning to `CC(=O)Nc1ccc(NC(=O)c2cccc(-c3ccc(CN4CCOCC4)cc3)c2)cc1`, the IC50 in experiment [1] is greater than 50 µM; in experiment [2], 0.77 µM. For the same compound, the result in experiment [3] (time 25.0 hrs) and in experiment [4] (time 25.0 hrs) was inactive.
As for `O=C(Nc1ccc(C(F)(F)F)cc1)c1cccc(-c2ccc(CN3CCOCC3)cc2)c1`, the IC50 was greater than 50 µM in experiment [1] and greater than 1 µM in experiment [2]. Moreover, the result in experiment [3] (time 25.0 hrs) and in experiment [4] (time 25.0 hrs) was inactive.
In the case of `Nc1c(C(=O)Nc2cncc3ccccc23)cccc1-c1ccc(CN2CCOCC2)cc1`, the IC50 amounted to 5.3 µM in experiment [1] and 0.222 µM in experiment [2]. Besides, the results for the Activity in experiment [3] (time 25 hrs) and in experiment [4] (time 25 hrs) were 62.3% and 60.8%, respectively.
For `O=C1Nc2c(cccc2-c2ccc(CN3CCOCC3)cc2)/C1=C/c1ccnc2ccccc12` the same measures were 4.4 µM, 0.106 µM, 88.3% and 72.2%.
Turning to `Nc1ccccc1NC(=O)c1cccc(-c2ccc(CN3CCOCC3)cc2)c1`, the IC50 in experiment [1] is greater than 50 µM; in experiment [2], greater than 1 µM. Also, the outcome in experiment [3] (time 25.0 hrs) and in experiment [4] (time 25.0 hrs) was inactive.
Turning to `O=C1Nc2c(cccc2-c2ccc3cn[nH]c3c2)/C1=C/c1ccnc2ccccc12`, the values for the IC50 in experiment [1] and in experiment [2] were 14.8 µM and 0.311 µM, respectively. The Activity in experiment [3] (time 25 hrs) was found to be 65.3%; in experiment [4] (time 25 hrs), 43.3%.
Consider `COc1cccc(NC(=O)c2cccc(-c3ccc(CN4CCOCC4)cc3)c2)c1`, for which the values for the concentration for half-maximal inhibition (IC50) in experiment [1] and in experiment [2] were greater than 50 µM and 0.486 µM, respectively. The results for the Activity in experiment [3] (time 25 hrs) and in experiment [4] (time 25 hrs) were 25.5% and 20.4%, respectively.
In the case of `Nc1ccc(-c2cccc3c2NC(=O)/C3=C\c2ccnc3ccccc23)cc1`, the IC50 in experiment [1] stood at 8.1 µM; in experiment [2] it was 0.493 µM. The outcome in experiment [3] (time 25.0 hrs) and in experiment [4] (time 25.0 hrs) was inactive.
With `O=C(Nc1cncc2ccccc12)c1cccc(-c2ccc(CN3CCOCC3)cc2)n1`, the IC50 in experiment [1] was greater than 50 µM; in experiment [2], 0.251 µM. Further, the outcome in experiment [3] (time 25.0 hrs) and in experiment [4] (time 25.0 hrs) was inactive.
Turning to `Cc1cccc(NC(=O)c2cccc(-c3ccc(CN4CCOCC4)cc3)c2)c1`, the figures for the IC50 in experiment [1] and in experiment [2] were greater than 50 µM and greater than 1 µM, respectively. In addition, the outcome in experiment [3] (time 25.0 hrs) and in experiment [4] (time 25.0 hrs) was inactive.
Take `O=C1Nc2c(cccc2-c2ccc(F)cc2)/C1=C/c1ccnc2ccccc12`: the IC50 in experiment [1] was 37.2 µM; in experiment [2] it was greater than 1 µM. Moreover, the result in experiment [3] (time 25.0 hrs) and in experiment [4] (time 25.0 hrs) was inactive.
For `CC(=O)Nc1ccccc1NC(=O)c1cccc(-c2ccc(CN3CCOCC3)cc2)c1`, the IC50 in experiment [1] is greater than 50 µM; in experiment [2], 0.9 µM. Besides, the result in experiment [3] (time 25.0 hrs) and in experiment [4] (time 25.0 hrs) was inactive.
